Measurements taken from PubChem BioAssay AID248 (DTP/NCI, 2004).
Where “and” joins values, the source holds several entries; their conditions need not be identical. Equal values may be shown once. Inconclusive results and toxic doses are left out. Rule as the data show it: active = T/C of 150% or more; inactive = T/C below 125%. Square brackets hold non-standard residues; d marks the D form. Peptide text beside a SMILES is read from it. ξ: configuration not given here. ξF = NC(Cc1ccccc1)C(=O)O

System: L1210 leukemia ip in BDF1 mice, survival T/C
Assay: NCI In Vivo Anticancer Drug Screen. Data for tumor model L1210 Leukemia (intraperitoneal) in B6D2F1 (BDF1) mice
Conditions: endpoint: mean survival time, higher = longer survival
Outline: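 Ratio derived from survival: compound-dosed mice over vehicle-dosed mice, all bearing a transplantable tumor.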

[1] = dose: 12.5 mg/kg/injection, schedule: Q01DX009 (ip), vehicle: Klucel (hydroxypropylcellulose) (HPC)
[2] = dose: 100.0 mg/kg/injection, schedule: Q01DX001 (ip), vehicle: saline
[3] = dose: 200.0 mg/kg/injection, schedule: Q01DX001 (ip), vehicle: saline
[4] = dose: 400.0 mg/kg/injection, schedule: Q01DX001 (ip), vehicle: saline
[5] = dose: 100.0 mg/kg/injection, schedule: Q04DX002 (ip), vehicle: saline with Tween-80
[6] = dose: 200.0 mg/kg/injection, schedule: Q04DX002 (ip), vehicle: saline with Tween-80
[7] = dose: 400.0 mg/kg/injection, schedule: Q04DX002 (ip), vehicle: saline with Tween-80
[8] = dose: 50.0 mg/kg/injection, schedule: Q01DX009 (ip), vehicle: Klucel (hydroxypropylcellulose) (HPC)
[9] = dose: 100.0 mg/kg/injection, schedule: Q01DX009 (ip), vehicle: Klucel (hydroxypropylcellulose) (HPC)
[10] = dose: 100.0 mg/kg/injection, schedule: Q04DX003 (ip), vehicle: Klucel (hydroxypropylcellulose) (HPC)
[11] = dose: 200.0 mg/kg/injection, schedule: Q01DX009 (ip), vehicle: Klucel (hydroxypropylcellulose) (HPC)
[12] = dose: 200.0 mg/kg/injection, schedule: Q04DX003 (ip), vehicle: Klucel (hydroxypropylcellulose) (HPC)
[13] = dose: 400.0 mg/kg/injection, schedule: Q04DX003 (ip), vehicle: Klucel (hydroxypropylcellulose) (HPC)
[14] = dose: 100.0 mg/kg/injection, schedule: Q01DX009 (ip), vehicle: saline with Tween-80
[15] = dose: 100.0 mg/kg/injection, schedule: Q04DX003 (ip), vehicle: saline with Tween-80
[16] = dose: 200.0 mg/kg/injection, schedule: Q01DX009 (ip), vehicle: saline with Tween-80
[17] = dose: 200.0 mg/kg/injection, schedule: Q04DX003 (ip), vehicle: saline with Tween-80
[18] = dose: 400.0 mg/kg/injection, schedule: Q04DX003 (ip), vehicle: saline with Tween-80
[19] = dose: 100.0 mg/kg/injection, schedule: Q04DX002 (ip), vehicle: Klucel (hydroxypropylcellulose) (HPC)
[20] = dose: 200.0 mg/kg/injection, schedule: Q04DX002 (ip), vehicle: Klucel (hydroxypropylcellulose) (HPC)
[21] = dose: 400.0 mg/kg/injection, schedule: Q04DX002 (ip), vehicle: Klucel (hydroxypropylcellulose) (HPC)
[22] = dose: 100.0 mg/kg/injection, schedule: Q04DX003 (ip), vehicle: saline
[23] = dose: 200.0 mg/kg/injection, schedule: Q04DX003 (ip), vehicle: saline
[24] = dose: 400.0 mg/kg/injection, schedule: Q04DX003 (ip), vehicle: saline
[25] = dose: 100.0 mg/kg/injection, schedule: Q01DX005 (ip), vehicle: saline
[26] = dose: 200.0 mg/kg/injection, schedule: Q01DX005 (ip), vehicle: saline
[27] = dose: 50.0 mg/kg/injection, schedule: Q01DX001 (ip), vehicle: saline

Measured: T/C

N=C(CNC1CC2CCC1C2)SS(=O)(=O)O (stereo unspecified)
inactive: dose: 3.13 mg/kg/injection, schedule: Q01DX009 (ip), vehicle: Klucel (hydroxypropylcellulose) (HPC) 97 % of control | dose: 3.13 mg/kg/injection, schedule: Q04DX002 (ip), vehicle: Klucel (hydroxypropylcellulose) (HPC) 98 % of control | dose: 6.25 mg/kg/injection, schedule: Q01DX009 (ip), vehicle: Klucel (hydroxypropylcellulose) (HPC) 94 % of control | dose: 6.25 mg/kg/injection, schedule: Q04DX002 (ip), vehicle: Klucel (hydroxypropylcellulose) (HPC) 95 % of control | [1] 105 % of control | dose: 12.5 mg/kg/injection, schedule: Q04DX002 (ip), vehicle: Klucel (hydroxypropylcellulose) (HPC) 98 % of control and 103 % of control

Nc1cccc(C(=O)NO)c1
inactive: [2] 98 % of control | [3] 103 % of control | [4] 97 % of control

COc1cc(N=C(N)N=C(N)N)c2ncccc2c1
inactive: dose: 75.0 mg/kg/injection, schedule: Q01DX001 (ip), vehicle: carboxymethylcellulose (CMC) 97 % of control

O=C(C1=CN(CC(O)c2ccccc2)CCC1)c1cc2ccccc2n1S(=O)(=O)c1ccccc1 (stereo unspecified)
inactive: [5] 97 % of control | [6] 94 % of control | [7] 94 % of control

CN1C(=O)CN=C(c2ccccc2)c2cc(Cl)ccc21
inactive: [1] 97 % of control | dose: 25.0 mg/kg/injection, schedule: Q01DX009 (ip), vehicle: Klucel (hydroxypropylcellulose) (HPC) 95 % of control | dose: 25.0 mg/kg/injection, schedule: Q04DX003 (ip), vehicle: Klucel (hydroxypropylcellulose) (HPC) 93 % of control | [8] 100 % of control | dose: 50.0 mg/kg/injection, schedule: Q04DX003 (ip), vehicle: Klucel (hydroxypropylcellulose) (HPC) 93 % of control | [9] 100 % of control and 103 % of control | [10] 110 % of control and 93 % of control | [11] 100 % of control and 97 % of control | [12] 102 % of control and 110 % of control | dose: 400.0 mg/kg/injection, schedule: Q01DX009 (ip), vehicle: Klucel (hydroxypropylcellulose) (HPC) 100 % of control | [13] 88 % of control

CC(C)C(N)(CCCN(C)C)c1cccc2ccccc12 (stereo unspecified)
inactive: [5] 98 % of control

NCC(=O)c1cccc2ccc[n+]([O-])c12
inactive: [8] 97 % of control | [9] 97 % of control | [10] 95 % of control | [12] 98 % of control

CC(C)=CCC/C(C)=C/C#N
inactive: dose: 100.0 mg/kg/injection, schedule: Q01DX001 (ip), vehicle: carboxymethylcellulose (CMC) 100 % of control | dose: 200.0 mg/kg/injection, schedule: Q01DX001 (ip), vehicle: carboxymethylcellulose (CMC) 111 % of control | dose: 400.0 mg/kg/injection, schedule: Q01DX001 (ip), vehicle: carboxymethylcellulose (CMC) 94 % of control

CC1C[N+](C)=C(c2ccc(O)cc2)S1 (stereo unspecified)
inactive: dose: 50.0 mg/kg/injection, schedule: Q01DX001 (ip), vehicle: saline with Tween-80 103 % of control | dose: 100.0 mg/kg/injection, schedule: Q01DX001 (ip), vehicle: saline with Tween-80 107 % of control

Nc1ccc(OCCCCNC(=O)c2ccc(S(=O)(=O)F)cc2)c(Cl)c1
inactive: [14] 98 % of control | [15] 97 % of control | [16] 102 % of control | [17] 97 % of control | [18] 97 % of control

CC(=O)Nc1cc([As](=O)(O)O)ccc1O
inactive: [8] 105 % of control | [9] 102 % of control | [11] 97 % of control

O=C(O)c1c(Cl)c(Cl)c(Cl)c(Cl)c1Cl
inactive: [14] 103 % of control | [16] 106 % of control | dose: 400.0 mg/kg/injection, schedule: Q01DX009 (ip), vehicle: saline with Tween-80 112 % of control

N=Nc1c(O)[nH]c2ccccc12
inactive: [19] 92 % of control | [20] 96 % of control | [21] 92 % of control

CCCCCCCCCCCCNC(=S)NCCCC
inactive: dose: 50.0 mg/kg/injection, schedule: Q04DX002 (ip), vehicle: Klucel (hydroxypropylcellulose) (HPC) 91 % of control | [19] 95 % of control | [20] 98 % of control

CCC/C=C(/CC(=O)O)C(=O)O
inactive: [22] 95 % of control | [23] 100 % of control | [24] 97 % of control

O=C(Nc1ccccc1Cl)Oc1ccc(Cl)cc1Cc1ccccc1
inactive: [14] 91 % of control | [5] 100 % of control | [16] 90 % of control | [6] 91 % of control | [7] 91 % of control

CC(CN)OC12CC3CC(CC(C3)C1)C2 (stereo unspecified)
inactive: dose: 5.0 mg/kg/injection, schedule: Q04DX002 (ip), vehicle: saline 91 % of control | dose: 10.0 mg/kg/injection, schedule: Q01DX009 (ip), vehicle: saline 94 % of control | dose: 10.0 mg/kg/injection, schedule: Q04DX002 (ip), vehicle: saline 102 % of control | dose: 20.0 mg/kg/injection, schedule: Q01DX009 (ip), vehicle: saline 101 % of control | dose: 20.0 mg/kg/injection, schedule: Q04DX002 (ip), vehicle: saline 94 % of control | dose: 40.0 mg/kg/injection, schedule: Q01DX009 (ip), vehicle: saline 101 % of control | dose: 40.0 mg/kg/injection, schedule: Q04DX002 (ip), vehicle: saline 95 % of control and 91 % of control

c1ccc(P(c2ccccc2)N2CCN(P(c3ccccc3)c3ccccc3)CC2)cc1
inactive: [5] 96 % of control | [6] 93 % of control | [7] 104 % of control

Nc1c(-c2ncc[nH]2)ncn1C1OC(CO)C(O)C1O (stereo unspecified)
inactive: [25] 94 % of control | [26] 93 % of control

CC1(C)NC(=O)N(CN2CCN(CN3C(=O)NC(C)(C)C3=O)CC2)C1=O
inactive: [22] 108 % of control | [23] 108 % of control | [24] 113 % of control

N/C(=N\O)c1c(N)ncn1C1OC(CO)C(O)C1O (stereo unspecified)
inactive: [25] 97 % of control | [26] 100 % of control

Cc1ccc(N2CCN(Cc3ccc4ccccc4c3)CC2)cc1
inactive: [15] 102 % of control | [17] 94 % of control | [18] 100 % of control

Cc1cccc(C(=O)C(O)(c2ccccc2)C2CCCCC2=O)c1 (stereo unspecified)
inactive: [19] 100 % of control | [20] 92 % of control | [21] 114 % of control

COC(=O)C(=O)CC(=O)c1ccc(OC)cc1
inactive: [19] 103 % of control | [20] 95 % of control | [21] 100 % of control

NC(=S)N/N=C\c1ccc(/C=N/NC(N)=S)cc1
inactive: [27] 90 % of control | [2] 93 % of control | [3] 90 % of control

CC(=O)OC1CCC2(C)C(CCC3C4CCC(C(C)OC(C)=O)C4NC(=O)CC32)C1 (stereo unspecified)
inactive: dose: 75.0 mg/kg/injection, schedule: Q01DX001 (ip), vehicle: other 104 % of control | dose: 150.0 mg/kg/injection, schedule: Q01DX001 (ip), vehicle: other 101 % of control | dose: 300.0 mg/kg/injection, schedule: Q01DX001 (ip), vehicle: other 93 % of control

NCC(=O)NC(Cc1ccccc1)C(=O)O (stereo unspecified) (H-Gly-[ξF]-OH)
inactive: [27] 110 % of control | [2] 96 % of control | [3] 112 % of control | [4] 107 % of control

COC(=O)CCc1c(C)[nH]c(C(=O)OC(C)(C)C)c1C
inactive: dose: 100.0 mg/kg/injection, schedule: Q01DX001 (ip), vehicle: Klucel (hydroxypropylcellulose) (HPC) 97 % of control | [10] 93 % of control | dose: 200.0 mg/kg/injection, schedule: Q01DX001 (ip), vehicle: Klucel (hydroxypropylcellulose) (HPC) 101 % of control | [12] 98 % of control | dose: 400.0 mg/kg/injection, schedule: Q01DX001 (ip), vehicle: Klucel (hydroxypropylcellulose) (HPC) 93 % of control | [13] 95 % of control
